In US9937151B2, “Carbapenem antibacterials with gram-negative activity” (priority 2010, dated 2018):
Values after ≈ are worked out from the molar mass of the structure shown.

Test system: G(−) bacterial strains
Experiment: Dilution antimicrobial susceptibility tests (MIC, NCCLS agar dilution / broth dilution)
Type: cell-based, Gram-negative organisms
Details: unit assumed
Outline: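 Agar dilution on Mueller-Hinton agar at 10^4 CFU/spot and broth dilution at 5×10^5 CFU/well, per NCCLS M7-A5. Streptococci tested on Mueller-Hinton agar with 5% sheep blood. MIC taken as minimum inhibitory concentration; ATCC control strains run alongside.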

[1] = strain #1 Acinetobacter calcoaceticus
[2] = strain #2 Acinetobacter baumannii, Cf-R, Ci-R
[3] = strain #3 Acinetobacter baumannii, Cf-R, Ci-R, Mp-I
[4] = strain #4 Acinetobacter baumannii, Cf-R, Imp-I, CBPase
[5] = strain #7 Enterobacter aerogenes
[6] = strain #8 Enterobacter cloacae, Cf-R, B+
[7] = strain #9 Enterobacter cloacae, Cf-R
[8] = strain #10 Escherichia coli, Ci-R
[9] = strain #11 Escherichia coli, Ci-R, AmpC
[10] = strain #15 Klebsiella pneumoniae
[11] = strain #16 Moraxella catarrhalis
[12] = strain #21 Providencia rettgeri
[13] = strain #22 Salmonella typhimurium
[14] = strain #25 Shigella dysenteriae
[15] = strain #28 Stenotrophomonas maltophilia
[16] = strain #29 Pseudomonas aeruginosa
[17] = strain #30 Pseudomonas aeruginosa
[18] = strain #31 Pseudomonas aeruginosa, Ofx-R
[19] = strain #32 Pseudomonas aeruginosa, Cf-R
[20] = strain #33 Pseudomonas aeruginosa, Ci-R
[21] = strain #34 Pseudomonas aeruginosa, Gen-R
[22] = strain #35 Pseudomonas aeruginosa, Ip-R
[23] = strain #36 Pseudomonas aeruginosa, Cf-R, Ci-R, Mp-R

Row | Compound | MIC [1] | MIC [2] | MIC [3] | MIC [4] | MIC (strain #5 Citrobacter diversus) | MIC (strain #6 Citrobacter freundii) | MIC [5] | MIC [6] | MIC [7] | MIC [8] | MIC [9] | MIC (strain #12 Escherichia coli) | MIC (strain #13 Escherichia coli) | MIC (strain #14 Klebsiella oxytoca) | MIC [10] | MIC [11] | MIC (strain #17 Morganella Morganii) | MIC (strain #18 Morganella Morganii) | MIC (strain #19 Proteus vulgaris) | MIC (strain #20 Proteus mirabilis) | further results
1 | C[C@@H](O)C1C(=O)N2C(C(=O)O)=C(CN3CC[C@H](C(=O)N(C)C)C3)[C@H](C)C12 (stereo partly shown) [Compound 120] | 4 µg/mL (≈ 10.9 µM) | 8 µg/mL (≈ 21.9 µM) | 16 µg/mL (≈ 43.8 µM) | 4 µg/mL (≈ 10.9 µM) | 0.5 µg/mL (≈ 1.37 µM) | 0.5 µg/mL (≈ 1.37 µM) | 2 µg/mL (≈ 5.47 µM) | 0.5 µg/mL (≈ 1.37 µM) | 1 µg/mL (≈ 2.74 µM) | 0.5 µg/mL (≈ 1.37 µM) | 0.5 µg/mL (≈ 1.37 µM) | 0.5 µg/mL (≈ 1.37 µM) | 0.5 µg/mL (≈ 1.37 µM) | 1 µg/mL (≈ 2.74 µM) | 1 µg/mL (≈ 2.74 µM) | 0.016 µg/mL (≈ 0.0438 µM) | 8 µg/mL (≈ 21.9 µM) | 4 µg/mL (≈ 10.9 µM) | 4 µg/mL (≈ 10.9 µM) | 0.5 µg/mL (≈ 1.37 µM) | MIC [12]: 2 µg/mL (≈ 5.47 µM); MIC [13]: 0.5 µg/mL (≈ 1.37 µM); MIC (strain #23 Serratia marcescens): 1 µg/mL (≈ 2.74 µM); MIC (strain #24 Serratia marcescens): 2 µg/mL (≈ 5.47 µM); MIC [14]: 0.5 µg/mL (≈ 1.37 µM); MIC (strain #26 Shigella sonnei): 0.5 µg/mL (≈ 1.37 µM); MIC (strain #27 Shigella flexneri): 0.5 µg/mL (≈ 1.37 µM); MIC [15]: 1 µg/mL (≈ 2.74 µM); MIC [16]: 16 µg/mL (≈ 43.8 µM); MIC [17]: 16 µg/mL (≈ 43.8 µM); MIC [18]: 4 µg/mL (≈ 10.9 µM); MIC [19]: 16 µg/mL (≈ 43.8 µM); MIC [20]: 16 µg/mL (≈ 43.8 µM); MIC [21]: 16 µg/mL (≈ 43.8 µM); MIC [22]: > 32 µg/mL; MIC [23]: > 32 µg/mL
2 | C[C@@H](O)C1C(=O)N2C(C(=O)O)=C(CN3CC(NS(N)(=O)=O)C3)[C@H](C)C12 (stereo partly shown) [Compound 58] | 0.5 µg/mL (≈ 1.34 µM) | 2 µg/mL (≈ 5.34 µM) | 4 µg/mL (≈ 10.7 µM) | 2 µg/mL (≈ 5.34 µM) | 0.13 µg/mL (≈ 0.347 µM) | 0.25 µg/mL (≈ 0.668 µM) | 0.5 µg/mL (≈ 1.34 µM) | 0.13 µg/mL (≈ 0.347 µM) | 0.25 µg/mL (≈ 0.668 µM) | 0.13 µg/mL (≈ 0.347 µM) | 0.13 µg/mL (≈ 0.347 µM) | 0.13 µg/mL (≈ 0.347 µM) | 0.25 µg/mL (≈ 0.668 µM) | 0.25 µg/mL (≈ 0.668 µM) | 0.25 µg/mL (≈ 0.668 µM) | ≤ 0.008 µg/mL | 1 µg/mL (≈ 2.67 µM) | 1 µg/mL (≈ 2.67 µM) | 0.5 µg/mL (≈ 1.34 µM) | 0.25 µg/mL (≈ 0.668 µM) | MIC [12]: 0.5 µg/mL (≈ 1.34 µM); MIC [13]: 0.25 µg/mL (≈ 0.668 µM); MIC (strain #23 Serratia marcescens): 0.5 µg/mL (≈ 1.34 µM); MIC (strain #24 Serratia marcescens): 0.5 µg/mL (≈ 1.34 µM); MIC [14]: 0.25 µg/mL (≈ 0.668 µM); MIC (strain #26 Shigella sonnei): 0.25 µg/mL (≈ 0.668 µM); MIC (strain #27 Shigella flexneri): 0.13 µg/mL (≈ 0.347 µM); MIC [15]: 0.25 µg/mL (≈ 0.668 µM); MIC [16]: 8 µg/mL (≈ 21.4 µM); MIC [17]: 8 µg/mL (≈ 21.4 µM); MIC [18]: 4 µg/mL (≈ 10.7 µM); MIC [19]: 8 µg/mL (≈ 21.4 µM); MIC [20]: 8 µg/mL (≈ 21.4 µM); MIC [21]: 8 µg/mL (≈ 21.4 µM); MIC [22]: 16 µg/mL (≈ 42.7 µM); MIC [23]: 32 µg/mL (≈ 85.5 µM)
3 | C[C@@H](O)C1C(=O)N2C(C(=O)O)=C(CN3CC[C@H](C(=O)NS(C)(=O)=O)C3)[C@H](C)C12 (stereo partly shown) [Compound 132] | 4 µg/mL (≈ 9.63 µM) | 16 µg/mL (≈ 38.5 µM) | 16 µg/mL (≈ 38.5 µM) | 32 µg/mL (≈ 77 µM) | 0.25 µg/mL (≈ 0.602 µM) | 0.25 µg/mL (≈ 0.602 µM) | 1 µg/mL (≈ 2.41 µM) | 0.25 µg/mL (≈ 0.602 µM) | 0.5 µg/mL (≈ 1.2 µM) | 0.25 µg/mL (≈ 0.602 µM) | 0.25 µg/mL (≈ 0.602 µM) | 0.25 µg/mL (≈ 0.602 µM) | 0.25 µg/mL (≈ 0.602 µM) | 0.5 µg/mL (≈ 1.2 µM) | 0.5 µg/mL (≈ 1.2 µM) | 0.016 µg/mL (≈ 0.0385 µM) | 4 µg/mL (≈ 9.63 µM) | 4 µg/mL (≈ 9.63 µM) | 1 µg/mL (≈ 2.41 µM) | 0.25 µg/mL (≈ 0.602 µM) | MIC [12]: 1 µg/mL (≈ 2.41 µM); MIC [13]: 0.25 µg/mL (≈ 0.602 µM); MIC (strain #23 Serratia marcescens): 0.5 µg/mL (≈ 1.2 µM); MIC (strain #24 Serratia marcescens): 1 µg/mL (≈ 2.41 µM); MIC [14]: 0.25 µg/mL (≈ 0.602 µM); MIC (strain #26 Shigella sonnei): 0.25 µg/mL (≈ 0.602 µM); MIC (strain #27 Shigella flexneri): 0.13 µg/mL (≈ 0.313 µM); MIC [15]: 2 µg/mL (≈ 4.81 µM)
